Legend:
[1] = test system: adenine-induced renal failure rat; assay: Suppressive effect on rise in serum phosphorus concentration of adenine-induced renal failure rat (0.1% in feed, 3 days); type: in vivo, Wistar male rat; conditions: feed or water, 72 h, rate of suppression of a rise in serum phosphorus concentration, 0.1% of mass concentration in feed
Excerpt: Test Example 5: Suppressive effect on rise in serum phosphorus concentration of adenine-induced renal failure rat Adenine was forcedly administered orally to each Wistar male rat (7-8 weeks old) to impair renal functions and thereby prepare a hyperphosphatemia model ([…], Nagano N, Burke SK, Fukushima N. Sevelamer hydrochloride prevents ectopic calcification and renal osteodystrophy in chronic renal failure rats. Kidney Int. 2003 Aug; 64 (2): 441-50). Each test compound was mixed at a ratio of 0.1% of mass concentration with feed. The animal was fed with a given amount of the feed for 3 days. A group given feed non-supplemented with a test compound was used as a reference pathological group, and an adenine-unadministered group given feed non-supplemented with a test compound was used as a normal group. 3 days after the start of administration of the test compound, blood was collected from the jugular vein, and serum was collected. Serum phosphorus concentrations were measured by the Fiske-Subbarow method. The rate of suppression of a rise in serum phosphorus concentration was determined according to the following expression: Rate (%) of suppression of a rise in serum phosphorus concentration = (1-[([…]-treatedpathologicalgroup); -(Serumphosphorusconcentrationofthenormalgroup)]/; [(Serumphosphorusconcentrationofthereferencepathologicalgroup)-(Serumphosphorusconcentrationofthenormalgroup)]) × 100 [formula] As a result, each test compound was confirmed to have a suppressive effect on a rise in serum phosphorus concentration. […]

[2] = test system: rat small-intestinal brush border membrane vesicles; assay: Inhibitory effect on 33PO4 uptake into rat small-intestinal brush border membrane vesicles (rapid filtration method); type: biochemical, Wistar female rat; conditions: 1 µM test compound; 33PO4 uptake into rat small-intestinal BBMVs, 60 seconds
How it was run: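 Uptake was terminated by ice-cold 110 mM NaCl, 1 mM KH2PO4, 10 mM HEPES (pH 7.5) buffer and immediate suction filtration, then washing. Using rat small-intestinal BBMVs, retained 33PO4 was quantified by liquid scintillation counting as transport activity.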

Compound	inhibition in vivo at 0.1 %, 0.1 % in feed [1]	Rate of uptake inhibition (%) (1 µM) [2]
C[C@]12CCCN1N(Cc1ccc(C#CCN3CCOCC3)c(F)c1F)C(=O)C(C(=O)Nc1ccc(C(F)(F)F)cc1-c1ccc(C(F)(F)F)nc1)=C2O [Example 140, (4aR)-1-[[2,3-Difluoro-4-(3-morpholin-4-ylprop-1-ynyl)phenyl]methyl]-4-hydroxy-4a-methyl-2-oxo-N-[4-(trifluoromethyl)-2-[6-(trifluoromethyl)pyridin-3-yl]phenyl]-6,7-dihydro-5H-pyrrolo[1,2-b]pyridazine-3-carboxamide]	39%	77%
CSc1ccc(-c2cc(Cl)ccc2NC(=O)C2=C(O)[C@H](C(C)(C)C)N(C)N(Cc3ccc(OCCN4CCOCC4)c(F)c3F)C2=O)cn1 [Example 269, (3S)-3-tert-Butyl-N-[4-chloro-2-(6-methylsulfanylpyridin-3-yl)phenyl]-1-[[2,3-difluoro-4-(2-morpholin-4-ylethoxy)phenyl]methyl]-4-hydroxy-2-methyl-6-oxo-3H-pyridazine-5-carboxamide]	15%	80%
C[C@]12CCCN1N(Cc1cccc(Cl)c1F)C(=O)C(C(=O)Nc1cc(F)c(Br)c(F)c1)=C2O [Example 196, (4aR)-N-(4-Bromo-3,5-difluorophenyl)-1-[(3-chloro-2-fluorophenyl)methyl]-4-hydroxy-4a-methyl-2-oxo-6,7-dihydro-5H-pyrrolo[1,2-b]pyridazine-3-carboxamide]	35%	90%
Cc1cc(NC(=O)C2=C(O)[C@H]3CCCCN3N(Cc3cccc(F)c3)C2=O)c(C(F)(F)F)o1 [Example 15, (4aR)-1-[(3-Fluorophenyl)methyl]-4-hydroxy-N-[5-methyl-2-(tritluoromethyl)furan-3-yl]-2-oxo-5,6,7,8-tetrahydro-4aH-pyrido[1,2-b]pyridazine-3-carboxamide]		42%
CN1N(Cc2cccc(F)c2F)C(=O)C(C(=O)Nc2ccc(C(F)(F)F)cc2-c2ccc(S(=O)(=O)N(C)C)cc2)=C(O)C1(C)C [Example 308]		63%
C[C@]12CCCN1N(Cc1cccc(F)c1F)C(=O)C(C(=O)Nc1ccc(C(F)(F)F)cc1-c1cnc(Cl)c(C#N)c1)=C2O [Example 68, (4aR)-N-[2-(6-Chloro-5-cyanopyridin-3-yl)-4-(trifluoromethyl)phenyl]-1-[(2,3-difluorophenyl)methyl]-4-hydroxy-4a-methyl-2-oxo-6,7-dihydro-5H-pyrrolo[1,2-b]pyridazine-3-carboxamide]		84%
C[C@]12CCCN1N(Cc1cc(F)c(F)cc1F)C(=O)C(C(=O)Nc1cc(F)c(Br)c(F)c1)=C2O [Example 194]		80%
CN1N(Cc2ccc(OCCN[C@@H](CC(=O)O)C(=O)O)c(F)c2F)C(=O)C(C(=O)Nc2ccc(C(F)(F)F)cc2-c2cc(C(F)(F)F)ncn2)=C(O)C12CCCC2 [Example 381, (2S)-2-[2-[2,3-Difluoro-4-[[10-hydroxy-6-methyl-8-oxo-9-[[4-(trifluoromethyl)-2-[6-(-trifluoromethyl)pyrimidin-4-yl]phenyl]carbamoyl]-6,7-diazaspiro[4.5]dec-9-en-7-yl]methyl]phenoxy]ethylamino]butanedioate]		28%
CN1N(Cc2cccc(F)c2F)C(=O)C(C(=O)Nc2ccc(C(F)(F)F)cc2-c2cc(C#N)ncn2)=C(O)C1(C)C [Example 303]		42%
CN1[C@@H](C(C)(C)C)C(O)=C(C(=O)Nc2ccc(Cl)cc2-c2ccc(C(F)(F)F)nc2)C(=O)N1Cc1cccc(F)c1F [Example 239]		48%
CN1N(Cc2ccc(OCCN(CCO)CCO)c(F)c2F)C(=O)C(C(=O)Nc2ccc(C(F)(F)F)cc2-c2cc(C(F)(F)F)ncn2)=C(O)C12CCC2 [Example 351]		22%

Source: patent EP2975030B1, “DIHYDROPYRIDAZINE-3,5-DIONE DERIVATIVE” (Chugai Seiyaku Kabushiki Kaisha, priority 2013, dated 2014)
